# Experimental data from patent publication US20260077018A1, “TREATMENT OF MILD TRAUMATIC BRAIN INJURY” (OXEIA BIOPHARMACEUTICALS, INC., priority 2022, published 2026).
# No end group written: not given here. *: point of attachment. Octanoyl = CCCCCCCC(=O)*
# System: persistently symptomatic concussion patients
# Assay: Phase 2 study of OXE-103 in persistently symptomatic concussion: PCSS symptom scoring
# Type: in vivo, human
# Settings: for 30% Responders - PCSS: Number of Responders / 30% Responders - PCSS: Responder % / 20% Responders - PCSS: Number of Responders / 20% Responders - PCSS: Responder %: Treated, 13 subjects; for PCSS symptom balance_problems / PCSS symptom difficulty_concentrating / PCSS symptom difficulty_remembering / PCSS symptom dizziness / PCSS symptom drowsiness / PCSS symptom fatigue / PCSS symptom feeling_in_a_fog / PCSS symptom feeling_more_emotional / PCSS symptom feeling_slowed_down / PCSS symptom headache / PCSS symptom irritability / PCSS symptom nausea / PCSS symptom neck_pain / PCSS symptom nervous_anxious / PCSS symptom numbness_or_tingling / PCSS symptom sadness / PCSS symptom sensitivity_to_light / PCSS symptom sensitivity_to_noise / PCSS symptom sleeping_less_than_usual / PCSS symptom sleeping_more_than_usual / PCSS symptom trouble_falling_asleep / PCSS symptom visual_problems / PCSS symptom vomiting: aggregated
# Description: Describe the change in symptom burden in sub-acute concussion for the two groups. A maximum of 50 subjects are enrolled, but recruiting stops if each arm has 20 participants, diagnosed with persistent concussion symptoms 28 days post injury who complete the study. Patients are randomized 1:1 to placebo versus OXE-103. The Post-Concussion Symptom Score questionnaire (PCSS) is used as an overall measure of symptom burden. The number of symptoms and severity at each time point are also measures of interest. In addition, subjects are asked to identify and rank the 4 most bothersome symptoms. Without being bound by theory, it is hypothesized that changes in these most bothersome symptoms have a higher correlation to improvement in quality of life. A visual comparison of change in the two groups is made. A change of 20% is considered to be clinically meaningful. This primary aim describes the change in symptoms between day 1 and day 14.
# Described herein is a randomized, double-blind, placebo-controlled design where 40 subjects will be randomized to either a placebo cohort or a treatment with OXE-103 cohort. We randomize using the RedCap database. The database is set up to share randomization allocation only with the investigational pharmacy. All subjects are consented and begin the screening period within 28 days post-injury. There is a 7-day screening period prior to randomization and commencement of study treatment to allow for assessment of stability of symptom burden. This screening period must start no later than 28 days post-injury. Starting with Day 1 (end of screening period), the treatment cohort receives OXE-103 40ug/kg SC twice daily by self-injection and the placebo group receives a placebo injection SC twice daily. Study drug and placebo are maintained and dispensed by Investigational Pharmacy. Subjects receive an 8-day supply of syringes pre-loaded with OXE-103 or placebo. Each cohort receives the 2nd set of syringes with OXE-103 or placebo at the day 7 visit. No therapies other than OXE-103 are administered during the 14-day treatment period to either cohort. After completion of 14 days of either placebo or OXE-103 treatment, starting with the Day 14 visit, other medications and therapies can be initiated for either cohort as needed.
# Symptom reduction (AIM 1): Our primary goal is to describe the change in number of symptoms and/or severity in sub-acute concussion with treatment with OXE-103 using the PCSS at days 1 and 15. We will also collect data at days 21 and 44 to potentially describe long term changes and potential lasting effect (AIM 4).
# Subjects complete the PCSS at the following timepoints[17]: upon signing consent (score must 20) (day −7), mid-way through the screening period (day −3), prior to assignment of a treatment cohort (score must 20) (day 1), as well as days 4, 8, 11, 15, 21 and 44. Subjects are instructed to record their symptoms at the same time of day for each assessment timepoint. There can be a two-hour window either way. (e.g. 12 PM+/−2 hrs.) The PCSS is recorded via a RedCap survey. The PCSS is a self-reported assessment of 22 symptoms using a Likert-type scale ranging from 0-6, with 0 indicating no difficulty with the outlined symptom and ratings of 1-6 representing mild-to-severe difficulty with the symptom. The reliability and validity of the PCSS are well documented We also ask subjects to rank their 4 most burdensome symptoms (4MBS) at Day 1 and we analyze these separately. As stated in the Specific Aims the purpose of this study is to collect data that would further refine clinical endpoints that could be used for larger Phase 2 studies and possibly lead to the establishment of pivotal endpoints for Phase 3 registration trials. The 22 symptom PCSS assessment is designed to cover the full spectrum of concussion related symptoms across cognitive, emotional and somatic domains. In that regard the PCSS is particularly useful for diagnosis and monitoring recovery of patients post injury. […]
substance,measurement,setting,value
"ghrelin (GSS(Octanoyl)FLSPEHQRVQQRKESKKPPAKLQPR; UniProt Q9UBU3 24-51, looked up) [OXE-103, naturally occurring peptide comprising 28 amino acids that include an N-octanoyl group at the 3-position of serine]",30% Responders - PCSS: Number of Responders,Day 11,7
same,30% Responders - PCSS: Responder %,Day 11,54%
same,PCSS symptom balance_problems,"Day 15, OXE-103 Treated",22
same,PCSS symptom difficulty_concentrating,"Day 15, OXE-103 Treated",30
same,PCSS symptom difficulty_remembering,"Day 15, OXE-103 Treated",26
same,PCSS symptom dizziness,"Day 15, OXE-103 Treated",21
same,PCSS symptom drowsiness,"Day 15, OXE-103 Treated",25
same,PCSS symptom fatigue,"Day 15, OXE-103 Treated",30
same,PCSS symptom feeling_in_a_fog,"Day 15, OXE-103 Treated",20
same,PCSS symptom feeling_more_emotional,"Day 15, OXE-103 Treated",22
same,PCSS symptom feeling_slowed_down,"Day 15, OXE-103 Treated",23
same,PCSS symptom headache,"Day 15, OXE-103 Treated",25
same,PCSS symptom irritability,"Day 15, OXE-103 Treated",25
same,PCSS symptom nausea,"Day 15, OXE-103 Treated",6
same,PCSS symptom neck_pain,"Day 15, OXE-103 Treated",20
same,PCSS symptom nervous_anxious,"Day 15, OXE-103 Treated",23
same,PCSS symptom numbness_or_tingling,"Day 15, OXE-103 Treated",5
same,PCSS symptom sadness,"Day 15, OXE-103 Treated",21
same,PCSS symptom sensitivity_to_light,"Day 15, OXE-103 Treated",18
same,PCSS symptom sensitivity_to_noise,"Day 15, OXE-103 Treated",16
same,PCSS symptom sleeping_less_than_usual,"Day 15, OXE-103 Treated",22
same,PCSS symptom sleeping_more_than_usual,"Day 15, OXE-103 Treated",15
same,PCSS symptom trouble_falling_asleep,"Day 15, OXE-103 Treated",25
same,PCSS symptom visual_problems,"Day 15, OXE-103 Treated",17
same,PCSS symptom vomiting,"Day 15, OXE-103 Treated",1
same,20% Responders - PCSS: Number of Responders,Day 15,9
same,20% Responders - PCSS: Responder %,Day 15,69%
same,30% Responders - PCSS: Number of Responders,Day 15,7
same,30% Responders - PCSS: Responder %,Day 15,54%
same,PCSS symptom balance_problems,"Day 21, OXE-103 Treated",23
same,PCSS symptom difficulty_concentrating,"Day 21, OXE-103 Treated",24
same,PCSS symptom difficulty_remembering,"Day 21, OXE-103 Treated",26
same,PCSS symptom dizziness,"Day 21, OXE-103 Treated",23
same,PCSS symptom drowsiness,"Day 21, OXE-103 Treated",26
same,PCSS symptom fatigue,"Day 21, OXE-103 Treated",28
same,PCSS symptom feeling_in_a_fog,"Day 21, OXE-103 Treated",24
same,PCSS symptom feeling_more_emotional,"Day 21, OXE-103 Treated",19
same,PCSS symptom feeling_slowed_down,"Day 21, OXE-103 Treated",26
same,PCSS symptom headache,"Day 21, OXE-103 Treated",23
same,PCSS symptom irritability,"Day 21, OXE-103 Treated",21
same,PCSS symptom nausea,"Day 21, OXE-103 Treated",12
same,PCSS symptom neck_pain,"Day 21, OXE-103 Treated",21
same,PCSS symptom nervous_anxious,"Day 21, OXE-103 Treated",16
same,PCSS symptom numbness_or_tingling,"Day 21, OXE-103 Treated",6
same,PCSS symptom sadness,"Day 21, OXE-103 Treated",14
same,PCSS symptom sensitivity_to_light,"Day 21, OXE-103 Treated",21
same,PCSS symptom sensitivity_to_noise,"Day 21, OXE-103 Treated",18
same,PCSS symptom sleeping_less_than_usual,"Day 21, OXE-103 Treated",19
same,PCSS symptom sleeping_more_than_usual,"Day 21, OXE-103 Treated",15
same,PCSS symptom trouble_falling_asleep,"Day 21, OXE-103 Treated",24
same,PCSS symptom visual_problems,"Day 21, OXE-103 Treated",19
same,PCSS symptom vomiting,"Day 21, OXE-103 Treated",0
same,20% Responders - PCSS: Number of Responders,Day 21,9
same,20% Responders - PCSS: Responder %,Day 21,69%
same,30% Responders - PCSS: Number of Responders,Day 21,8
same,30% Responders - PCSS: Responder %,Day 21,62%
same,PCSS symptom balance_problems,"Day 44, OXE-103 Treated",12
same,PCSS symptom difficulty_concentrating,"Day 44, OXE-103 Treated",16
same,PCSS symptom difficulty_remembering,"Day 44, OXE-103 Treated",21
same,PCSS symptom dizziness,"Day 44, OXE-103 Treated",9
same,PCSS symptom drowsiness,"Day 44, OXE-103 Treated",16
same,PCSS symptom fatigue,"Day 44, OXE-103 Treated",17
same,PCSS symptom feeling_in_a_fog,"Day 44, OXE-103 Treated",16
same,PCSS symptom feeling_more_emotional,"Day 44, OXE-103 Treated",7
same,PCSS symptom feeling_slowed_down,"Day 44, OXE-103 Treated",18
same,PCSS symptom headache,"Day 44, OXE-103 Treated",15
same,PCSS symptom irritability,"Day 44, OXE-103 Treated",10
same,PCSS symptom nausea,"Day 44, OXE-103 Treated",7
same,PCSS symptom neck_pain,"Day 44, OXE-103 Treated",14
same,PCSS symptom nervous_anxious,"Day 44, OXE-103 Treated",11
same,PCSS symptom numbness_or_tingling,"Day 44, OXE-103 Treated",6
same,PCSS symptom sadness,"Day 44, OXE-103 Treated",8
same,PCSS symptom sensitivity_to_light,"Day 44, OXE-103 Treated",9
same,PCSS symptom sensitivity_to_noise,"Day 44, OXE-103 Treated",13
same,PCSS symptom sleeping_less_than_usual,"Day 44, OXE-103 Treated",11
same,PCSS symptom sleeping_more_than_usual,"Day 44, OXE-103 Treated",8
same,PCSS symptom trouble_falling_asleep,"Day 44, OXE-103 Treated",16
same,PCSS symptom visual_problems,"Day 44, OXE-103 Treated",9
same,PCSS symptom vomiting,"Day 44, OXE-103 Treated",1
same,20% Responders - PCSS: Number of Responders,Day 44,11
same,20% Responders - PCSS: Responder %,Day 44,85%
same,30% Responders - PCSS: Number of Responders,Day 44,9
same,30% Responders - PCSS: Responder %,Day 44,69%
same,"PCSS symptoms, change from Day 1 to Day 44 (FIG. 14)",aggregated across 11 OXE-103 treatment responders per symptom,reduction in all symptoms
same,balance_problems % change from day 1 to day 44,"reduction, OXE-103 Treated",60%
same,difficulty_concentrating % change from day 1 to day 44,"reduction, OXE-103 Treated",65%
same,difficulty_remembering % change from day 1 to day 44,"reduction, OXE-103 Treated",56%
same,dizziness % change from day 1 to day 44,"reduction, OXE-103 Treated",76%
same,drowsiness % change from day 1 to day 44,"reduction, OXE-103 Treated",58%
same,fatigue % change from day 1 to day 44,"reduction, OXE-103 Treated",60%
same,feeling_in_a_fog % change from day 1 to day 44,"reduction, OXE-103 Treated",65%
same,feeling_more_emotional % change from day 1 to day 44,"reduction, OXE-103 Treated",77%
same,feeling_slowed_down % change from day 1 to day 44,"reduction, OXE-103 Treated",61%
same,headache % change from day 1 to day 44,"reduction, OXE-103 Treated",59%
same,irritability % change from day 1 to day 44,"reduction, OXE-103 Treated",71%
same,nausea % change from day 1 to day 44,"reduction, OXE-103 Treated",61%
same,neck_pain % change from day 1 to day 44,"reduction, OXE-103 Treated",63%
same,nervous_anxious % change from day 1 to day 44,"reduction, OXE-103 Treated",69%
same,numbness_or_tingling % change from day 1 to day 44,"reduction, OXE-103 Treated",63%
same,sadness % change from day 1 to day 44,"reduction, OXE-103 Treated",71%
same,sensitivity_to_light % change from day 1 to day 44,"reduction, OXE-103 Treated",74%
same,sensitivity_to_noise % change from day 1 to day 44,"reduction, OXE-103 Treated",64%
same,sleeping_less_than_usual % change from day 1 to day 44,"reduction, OXE-103 Treated",27%
same,sleeping_more_than_usual % change from day 1 to day 44,"reduction, OXE-103 Treated",67%
same,trouble_falling_asleep % change from day 1 to day 44,"reduction, OXE-103 Treated",57%
same,visual_problems % change from day 1 to day 44,"reduction, OXE-103 Treated",70%
same,vomiting % change from day 1 to day 44,"reduction, OXE-103 Treated",50%
